Results: patent US20040214850A1, “1-glyoxylamide indolizines for treating cancer” (Synta Pharmaceuticals Corp., priority 2001, published 2004)

Legend:
[1] = system: MDA435 (human breast cancer); assay: In vitro anti-cancer activity, MTS growth inhibition assay, MDA-435; format: cell-based; details: MDA-435 cells, 72 hours
Protocol: The in vitro activity of the compounds was determined in the following seven human cancer cell lines. MDA435 (human breast cancer), MIP101 (human colon cancer), HL-60 (human myeloid leukemia), U937 (human leukemia), p388 (murine leukemia), DU-145 (human prostate cancer), MES-SA (human uterine sarcoma) were obtained from ATCC (American Type of Culture Collection).
(§1) The cell lines were maintained in RPMI1640 (GIBCO) supplemented with 10% FCS, 100 units/ml penicillin, 100 ug/ml streptomycin, and 2 mM L-glutamine. The cells were split every third day and diluted to a concentration of 2×10^5 cells/ml one day before experiment. All experiments were performed on exponentially growing cell culture. Cell densities were 2.5×10^4 cells/ml in all experiment.
(§2) A stock solution of Compound (1) and a stock solution of Taxol (positive control) were prepared by dissolving the compound at a concentration of 1 mM in 100% DMSO. Final concentrations were obtained by diluting the stock solution directly into the tissue culture medium. Cells were incubated with varying concentrations of the compounds for 72 hours and the IC50 was determined by MTS (i.e. 3-(4,5,-dimethylthiazol-2-yl)-2,5-diphenyl tetrazolium bromide) assay. IC50 stands for the concentration of compound required to inhibit 50% tumor cell growth.

[2] = system: MDR cell lines (MES-SA/DX5, HL-60/TX1000); assay: in vitro activity over the two MDR cell lines; format: cell-based, human; details: MES-SA/DX5, HL-60/TX1000; in words
Protocol: as §1, §2
In vitro activity was determined in two MDR (Multi Drug Resistant) human cancer cell lines. HL-60/TX1000 was isolated in vitro by subculturing HL-60 in progressively higher concentration of Taxol. HL-60/TX1000 cells over-express mdr-1 mRNA and p-glycoprotein, as determined by western blot and immunofluorescence labeling with antiPGP antibodies. The cell is cross-resistant to Taxol, Vincristine, Adriamycin, Etoposide and Doxorubicin. MES-SA/Dx5 was established in the presence of increasing concentrations of Doxorubicin. […] MES-SA/Dx5 was purchased from ATCC.
The procedure for culturing the cells and assaying cancer cell growth inhibition were as described in Example 3.

## Cc1cc(NC(=O)C(=O)c2cc(Cc3ccc(C#N)cc3)n3ccccc23)sn1 [Compound (1), 2-(3-(4-cyanobenzyl)-indolizin-1-yl)-N-(3-methyl-isothiazol-5-yl)-2-oxo-acetamide]
[1]
  IC50: 50 nM
[2]
  anti-cancer activity against MDR cancer cell lines: high anti-cancer activity
